By IC50 is commonly meant the point on the concentration scale where inhibition reaches its midpoint.

Experimental findings from US10568876B2, “Tetrahydroisoquinoline derivatives useful as inhibitors of diacylglyceride O-acyltransferase 2” (Merck Sharp & Dohme Corp., priority 2014, dated 2020) are described below.

Each structure is given as a SMILES string.

hDGAT2, sequence (Q96PD7 whole entry): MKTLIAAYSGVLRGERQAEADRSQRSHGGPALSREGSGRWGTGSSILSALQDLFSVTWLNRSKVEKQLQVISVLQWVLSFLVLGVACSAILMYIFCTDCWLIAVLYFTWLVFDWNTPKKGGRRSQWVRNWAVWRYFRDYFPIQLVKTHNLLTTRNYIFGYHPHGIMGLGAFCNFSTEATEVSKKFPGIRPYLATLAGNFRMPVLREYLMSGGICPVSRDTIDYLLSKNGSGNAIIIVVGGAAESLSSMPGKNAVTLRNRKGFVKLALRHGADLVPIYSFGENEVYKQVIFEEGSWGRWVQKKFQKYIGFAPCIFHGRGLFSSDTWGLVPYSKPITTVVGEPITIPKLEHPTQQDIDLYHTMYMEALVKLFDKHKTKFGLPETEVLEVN

This experiment has as its target hDGAT2 (Homo sapiens (Human), UniProt Q96PD7). The experiment is described as follows: DGAT2 Enzymatic Activity Assay. The class given is biochemical. Particulars: hDGAT2 Sf-9 membrane prep; 25 μM diolein, 10 μM oleoyl-CoA; triolein product by LC/MS/MS; read-out: IC50 values for inhibition of DGAT2. The procedure:
Sf-9 insect cells were maintained in Grace's insect cell culture medium with 10% heated-inactivated fetal bovine serum, 1% Pluronic F-68 and 0.14 μg/ml Kanamycine sulfate in Erlenmeyer flasks at 28° C. in a shaker incubator. After infection with untagged hDGAT2 baculovirus at multiplicity of infection (MOI) 0.1 for 48 hours, cells were harvested. Cell pellets were suspended in buffer containing 10 mM Tris-HCl (pH 7.5), 1 mM EDTA (pH 8.0), 250 mM sucrose and Complete Protease Inhibitor Cocktail (Roche Diagnostics Corp., Indianapolis, Ill.), and sonicated on ice. Membrane fractions were isolated by ultracentrifugation (100,000×g pellet), resuspended in the same buffer, and frozen (−80° C.) for later use. The protein concentration was determined with the BCA Protein Assay kit (Pierce Biotechnology Inc., Rockford, Ill.). Expression of protein levels was analyzed by immunoblotting with goat polyclonal DGAT2 antibody C-15 and donkey anti-goat IgG HRP (Santa Cruz Biotechnology, Inc., Santa Cruz, Calif.) followed by detection with ECL reagent (GE Healthcare, Piscataway, N.J.).
LC/MS/MS analyses were performed using Thermal Fisher's LX4-TSQ Vantage system. This system consists of an Agilent binary high-performance liquid chromatography (HPLC) pumps and a TSQ Vantage triple quadrupole MS/MS instrument. For each sample, 2 μL, samples from the top organic layer of in-plate liquid-liquid extraction were injected onto a Thermo Betabasic C4 column (2.1 mm×20 mm, 5 μm particle size). The samples were then eluted using the following conditions; mobile phase: methanol/water with 0.1% ammonium format=92/8 (v/v), flow rate: 1 mL/min, temperature: 25 C. Data was acquired in positive mode using a heated electrospray ionization (HESI) interface. The operational parameters for the TSQ Vantage MS/MS instrument were a spray voltage of 3000 V, capillary temperature of 280° C., vaporizer temperature 400° C., shealth gas 60 arbitrary unit, Aux gas 40 arbitrary units, S-lens 113 and collision gas 0.16 Pascals. […] (SRM) chromatograms of triolein (Q1: 902.9>Q3: 602.3) and internal standard (Q1: 902.9>Q3: 602.3) were collected for 40 sec. The peak area was integrated by Xcalibur Quan software. The ratio between the triolein generated in the reaction and spiked in internal standard were used to generate percentage inhibition and IC50 values. Compound percentage inhibition was calculated by the following formula: Inhibition %=1-[(compound response low control)/(high control low control)]×100%. Potent compounds were titrated and IC50 were calculated by 4 parameter sigmoidal curve fitting formula.
DGAT2 activity was determined by measuring the amount of enzymatic product triolein (1,2,3-Tri(cis-9-octadecenoyl)glycerol) using the membrane prep mentioned above. The assay was carried out in deep well 384 plates in a final volume of 40 μL at room temperature. The assay mixture contained the following: assay buffer (100 mM Tris.Cl, pH 7.0, 20 mM MgCl2, 5% ethanol), 25 μM of diolein, 10 μM of oleoyl-CoA and 10 ng/μL of DGAT2 membrane.
`Cc1noc([C@@H]2C[C@H]2C(=O)NCc2ccc(-c3cccc(OC(F)(F)F)c3)c3c2CN(C(=O)Nc2ccon2)CC3)n1` (relative stereo) [Example 2, N-(isoxazol-3-yl)-8-(((trans)-2-(3-methyl-1,2,4-oxadiazol-5-yl)cyclopropanecarboxamido)methyl)-5-(3-(trifluoromethoxy)phenyl)-3,4-dihydroisoquinoline-2(1H)-carboxamide]: the concentration for half-maximal inhibition (IC50) was 112 nM.

In the case of `CC(C)(C)NC(=O)N1CCc2c(-c3cccc(-n4ccnn4)c3)ccc(CNC(=O)[C@@H]3C[C@H]3c3ccccc3)c2C1` (relative stereo) [Example 5, 5-(3-(1H-1,2,3-triazol-1-yl)phenyl)-N-(tert-butyl)-8-(((trans)-2-phenylcyclopropanecarboxamido)methyl)-3,4-dihydroisoquinoline-2(1H)-carboxamide], the IC50 came to 11.4 nM.

For `Cc1noc([C@@H]2C[C@H]2C(=O)NCc2ccc(-c3cccc(C(F)(F)F)c3)c3c2CN(C(=O)Nc2cccnc2)CC3)n1` (relative stereo) [Example 6, 8-(((trans)-2-(3-methyl-1,2,4-oxadiazol-5-yl)cyclopropanecarboxamido)methyl)-N-(pyridin-3-yl)-5-(3-(trifluoromethyl)phenyl)-3,4-dihydroisoquinoline-2(1H)-carboxamide], the IC50 came out at 101 nM.

For `Cc1cncc(-c2ccc(CNC(=O)[C@@H]3C[C@H]3c3ccccc3)c3c2CCN(C(=O)NC(C)(C)C)C3)c1` (relative stereo) [Example 8, N-(tert-butyl)-5-(5-methylpyridin-3-yl)-8-(((trans)-2-phenylcyclopropanecarboxamido)methyl)-3,4-dihydroisoquinoline-2(1H)-carboxamide], the IC50 is 82.3 nM.

Consider `CC(C)(C)NC(=O)N1CCc2c(-c3cccc(OC(F)(F)F)c3)ccc(CNC(=O)[C@H]3C[C@@H]3c3ccccc3)c2C1` (relative stereo) [Example 9, N-(tert-butyl)-8-(((trans)-2-phenylcyclopropanecarboxamido)methyl)-5-(3-(trifluoromethoxy)phenyl)-3,4-dihydroisoquinoline-2(1H)-carboxamide], for which the IC50 is 31 nM.

Turning to `CC(C)(C)NC(=O)N1CCc2c(-c3cncc(C(C)(C)O)c3)ccc(CNC(=O)[C@@H]3C[C@H]3c3ccccc3)c2C1` (relative stereo) [Example 10, N-(tert-butyl)-5-(5-(2-hydroxypropan-2-yl)pyridin-3-yl)-8-(((trans)-2-phenylcyclopropanecarboxamido)methyl)-3,4-dihydroisoquinoline-2(1H)-carboxamide], the half-maximal inhibitory concentration (IC50) came to 166 nM.

With `COc1cccc(-c2ccc(CNC(=O)[C@@H]3C[C@H]3c3nc(C)no3)c3c2CCN(C(=O)NC(C)(C)C)C3)c1` (relative stereo) [Example 11, N-(tert-butyl)-5-(3-methoxyphenyl)-8-(((trans)-2-(3-methyl-1,2,4-oxadiazol-5-yl)cyclopropanecarboxamido)methyl)-3,4-dihydroisoquinoline-2(1H)-carboxamide], the IC50 was found to be 3 nM.

For `Cc1noc([C@@H]2C[C@H]2C(=O)NCc2ccc(-c3cccc(OC(F)(F)F)c3)c3c2CN(C(=O)NC(C)(C)C)CC3)n1` (relative stereo) [Example 12, N-(tert-butyl)-8-(((trans)-2-(3-methyl-1,2,4-oxadiazol-5-yl)cyclopropanecarboxamido)methyl)-5-(3-(trifluoromethoxy)phenyl)-3,4-dihydroisoquinoline-2(1H)-carboxamide], the 50% inhibitory concentration (IC50) came out at 3.6 nM.

On to `CC(C)(C)NC(=O)N1CCc2c(-c3cccc(C(F)(F)F)c3)ccc(CNC(=O)[C@@H]3C[C@H]3c3ccccc3)c2C1` (relative stereo) [Example 14, N-(tert-butyl)-8-(((trans)-2-phenylcyclopropanecarboxamido)methyl)-5-(3-(trifluoromethyl)phenyl)-3,4-dihydroisoquinoline-2(1H)-carboxamide], for which the IC50 worked out at 34 nM.

Turning to `COc1cccc(-c2ccc(CNC(=O)[C@@H]3C[C@H]3c3ccccc3)c3c2CCN(C(=O)Nc2ccccn2)C3)c1` (relative stereo) [Example 15, 5-(3-methoxyphenyl)-8-(((trans)-2-phenylcyclopropanecarboxamido)methyl)-N-(pyridin-2-yl)-3,4-dihydroisoquinoline-2(1H)-carboxamide], the IC50 amounted to 3110 nM.

Consider `COc1cccc(-c2ccc(CNC(=O)[C@@H]3C[C@H]3c3ccccc3)c3c2CCN(C(=O)Nc2ccncc2)C3)c1` (relative stereo) [Example 18, 5-(3-methoxyphenyl)-8-(((trans)-2-phenylcyclopropanecarboxamido)methyl)-N-(pyridin-4-yl)-3,4-dihydroisoquinoline-2(1H)-carboxamide], for which the 50% inhibitory concentration (IC50) amounted to 2100 nM.

Regarding `COc1cccc(-c2ccc(CNC(=O)[C@H]3C[C@@H]3c3cccnc3)c3c2CCN(C(=O)NC(C)(C)C)C3)c1` (relative stereo) [Example 19, N-(tert-butyl)-5-(3-methoxyphenyl)-8-(((trans)-2-(pyridin-3-yl)cyclopropanecarboxamido)methyl)-3,4-dihydroisoquinoline-2(1H)-carboxamide], the half-inhibitory concentration (IC50) turned out to be 8.5 nM.

`COc1cccc(-c2ccc(CNC(=O)[C@@H]3C[C@H]3c3ccccc3)c3c2CCN(C(=O)Nc2cc(C)no2)C3)c1` (relative stereo) [Example 20, 5-(3-methoxyphenyl)-N-(3-methylisoxazol-5-yl)-8-(((trans)-2-phenylcyclopropanecarboxamido)methyl)-3,4-dihydroisoquinoline-2(1H)-carboxamide]: the concentration for half-maximal inhibition (IC50) amounted to 1640 nM.

Take `CC(C)(C)NC(=O)N1CCc2c(-c3cccc(C#N)c3)ccc(CNC(=O)[C@@H]3C[C@H]3c3ccccc3)c2C1` (relative stereo) [Example 22, N-(tert-butyl)-5-(3-cyanophenyl)-8-(((trans)-2-phenylcyclopropanecarboxamido)methyl)-3,4-dihydroisoquinoline-2(1H)-carboxamide]: the IC50 came out at 16.1 nM.

As to `COc1cccc(-c2ccc(CNC(=O)[C@@H]3C[C@H]3c3ccccc3)c3c2CCN(C(=O)Nc2ccon2)C3)c1` (relative stereo) [Example 23, N-(isoxazol-3-yl)-5-(3-methoxyphenyl)-8-(((trans)-2-phenylcyclopropanecarboxamido)methyl)-3,4-dihydroisoquinoline-2(1H)-carboxamide], the half-inhibitory concentration (IC50) amounted to 302 nM.

Turning to `COc1cccc(-c2ccc(CNC(=O)[C@@H]3C[C@H]3c3ccccc3)c3c2CCN(C(=O)Nc2cccnc2)C3)c1` (relative stereo) [Example 24, 5-(3-methoxyphenyl)-8-(((trans)-2-phenylcyclopropanecarboxamido)methyl)-N-(pyridin-3-yl)-3,4-dihydroisoquinoline-2(1H)-carboxamide], the IC50 was 238 nM.

For the compound `COc1cccc(-c2ccc(CNC(=O)[C@@H]3C[C@H]3c3nc(C)no3)c3c2CCN(C(=O)Nc2ccon2)C3)c1` (relative stereo) [Example 25, N-(isoxazol-3-yl)-5-(3-methoxyphenyl)-8-(((trans)-2-(3-methyl-1,2,4-oxadiazol-5-yl)cyclopropanecarboxamido)methyl)-3,4-dihydroisoquinoline-2(1H)-carboxamide], the concentration for half-maximal inhibition (IC50) worked out at 144 nM.
